Test results: article PMC7887336, “Altered functional properties of the codling moth Orco mutagenized in the intracellular loop-3” (Scientific Reports, 2021)
Values joined by “and” are separate entries in the source; they are usually repeats but may differ in a detail not shown here. Equal entries are not always repeated.

Key:
CpomOrco^Q417H = CpomOrco^Q417H (Cydia pomonella, UniProt H9A5M2, Q417H); experiment: Whole-cell voltage-clamp recordings of HEK293A cells transfected with CpomOrco^Q417H, VUAA1; assay type: cell-based; conditions: for EC50: EC50 (K1/2)
Chain of CpomOrco^Q417H (H9A5M2 entry or part of it Q417H): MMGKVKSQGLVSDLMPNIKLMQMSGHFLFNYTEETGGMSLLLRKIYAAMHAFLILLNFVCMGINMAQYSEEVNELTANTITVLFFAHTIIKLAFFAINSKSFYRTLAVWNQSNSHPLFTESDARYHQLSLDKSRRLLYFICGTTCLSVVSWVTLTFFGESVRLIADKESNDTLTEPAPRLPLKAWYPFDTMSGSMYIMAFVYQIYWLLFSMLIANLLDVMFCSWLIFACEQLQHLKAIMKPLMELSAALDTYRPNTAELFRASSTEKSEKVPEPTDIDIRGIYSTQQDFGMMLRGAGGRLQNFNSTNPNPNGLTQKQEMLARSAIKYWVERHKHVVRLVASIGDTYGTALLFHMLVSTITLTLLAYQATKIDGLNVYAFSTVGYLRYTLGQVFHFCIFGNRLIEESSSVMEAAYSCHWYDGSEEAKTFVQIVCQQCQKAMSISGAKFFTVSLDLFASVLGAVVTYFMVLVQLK
Experimental: HEK293 cells lines (HEK293A/HEK293T) were grown in HEK cell media [Dulbecco's modified Eagle's medium containing 10% fetal bovine serum (MP Biomedicals, Solon, OH, USA), 2.0 mM L-glutamine, and 100 µg/mL penicillin/streptomycin (Invitrogen)] at 37 °C and 5% CO2. To test transient expression of wild type CpomOrco and CpomOrco^Q417H variant for calcium imaging and patch-clamp recording, 35-mm petri dishes containing semi-confluent HEK293A cells were transiently transfected. Cells were transfected with 0.6 µg of pcDNA40-DEST carrying the coding sequence of the CpomOrco variant (depending on the experiments). To report expression for calcium imaging experiments, 0.6 µg of a separate plasmid DNA [pEBFP2-Nuc, a gift from Robert Campbell (Addgene plasmid # 1489352)] carrying the coding sequence for a blue fluorescent protein (EBFP) was co-transfected. To report expression in patch-clamp recordings, 1.0 µg of a separate plasmid DNA (pXOOM, Clontech, Mountain View, CA, USA) carrying the coding sequence for a green fluorescent protein (GFP) was co-transfected. Expressions of fluorescent reporter genes were under the regulation of the same promoter for Cpom-genes (CMV). For specific experiments, co-transfections were conducted combining an additional 1.2 µg of pcDNA40-DEST/CpomOR3 or pcDNA40-DEST/CpomOR6a, as we previously described. Co-transfections with CpomOR3 were performed for dose–response experiments to pear ester: CpomOR3 was co-expressed with CpomOrco variants by the use of HEK293T (Fig. 3b); given the reported functional co-expression data of the CpomOrco + OR3 heteromers by the use of these specific cells. In brief, transfection DNAs were dissolved in 100 µL sterile DMEM, mixed with 3.0 µL Calfectin (SignaGen, Rockville, MD, USA) following the recommended protocol. Transfections were conducted overnight for up to 18 h, HEK cell media was replaced with 2.0 mL fresh media to incubate cells at 37 °C for up to 6–8 h, at which point part of the cell culture was spread in the middle of a 35-mm plate as individual cells or small clusters and rinsed at the sides with 2.0 mL fresh HEK media. After splitting, cells were allowed to recover for at least 1 day prior to calcium imaging.
Electrophysiological experiments were performed according with the same procedures we previously described. Patch pipettes were fabricated from borosilicate capillary glass (BF150-86–10, Sutter Instrument, CA, USA) using a Flaming-Brown micropipette puller (P-87, Sutter Instrument). Only patches with initial cell-attached seal resistance estimated higher than 1.0 GOhms were used in the experiments. Intracellular (pipette) solution for whole-cell experiments was KCl 140 mM, EGTA 1 mM, Hepes 5 mM, MES 5 mM, pH 8.0 or pH 5.5 (depending on the experiment) adjusted with either NaOH or HCl, standard Na^+ 140 mM. bath solution was usually NaCl 140 mM, EGTA 0.1 mM, Hepes 10 mM, pH 7.4 (adjusted with Tris-base or NaOH). VUAA1 doses (0–1000 µM) were added to the extracellular test solutions.
As described in methods of Cattaneo et al.[14], GFP positive HEK293A cells were visualized using either an Axiovert 100 inverted microscope (Carl Zeiss, Inc., München, Germany) equipped with a mercury vapour compressed-arc lamp (HBO100) coupled to widefield fluorescence filter set (1114–459, Carl Zeiss, Inc.) or Olympus IX-71 inverted microscope described above (Olympus Corp.). The Orco channel-mediated currents were investigated using whole-cell patch-clamp recordings. The currents were measured with a 200B patch-clamp amplifier (Molecular Devices) and a digital interface (Digidata 1320A, Molecular Devices), low pass filtered at 5.0 kHz, sampled at 1–2 kHz. Analysis of the data was carried out using pCLAMP 9.2/10.5 software (Molecular Devices) and SigmaPlot 11 (Systat Software Inc). […]

CpomOrco+OR6a = experiment: VUAA1 responsiveness (Fluo4 +) of HEK293A cells co-transfected with CpomOrco and CpomOR6a; assay type: cell-based, Cydia pomonella; conditions: for Fluo4 + cells, %: of bright field cells
Experimental: HEK293 cells lines (HEK293A/HEK293T) were grown in HEK cell media [Dulbecco's modified Eagle's medium containing 10% fetal bovine serum (MP Biomedicals, Solon, OH, USA), 2.0 mM L-glutamine, and 100 µg/mL penicillin/streptomycin (Invitrogen)] at 37 °C and 5% CO2. To test transient expression of wild type CpomOrco and CpomOrco^Q417H variant for calcium imaging and patch-clamp recording, 35-mm petri dishes containing semi-confluent HEK293A cells were transiently transfected. Cells were transfected with 0.6 µg of pcDNA40-DEST carrying the coding sequence of the CpomOrco variant (depending on the experiments). To report expression for calcium imaging experiments, 0.6 µg of a separate plasmid DNA [pEBFP2-Nuc, a gift from Robert Campbell (Addgene plasmid # 1489352)] carrying the coding sequence for a blue fluorescent protein (EBFP) was co-transfected. To report expression in patch-clamp recordings, 1.0 µg of a separate plasmid DNA (pXOOM, Clontech, Mountain View, CA, USA) carrying the coding sequence for a green fluorescent protein (GFP) was co-transfected. Expressions of fluorescent reporter genes were under the regulation of the same promoter for Cpom-genes (CMV). For specific experiments, co-transfections were conducted combining an additional 1.2 µg of pcDNA40-DEST/CpomOR3 or pcDNA40-DEST/CpomOR6a, as we previously described. […]
Fluorescence imaging was performed using settings optimized for Imaging Workbench 6 software (INDEC BioSystems, Santa Clara, CA, USA)[14]. […] Each cell was assigned a region of interest (ROI) and changes in fluorescence intensity within each ROI were measured and expressed as the fractional change in fluorescence intensity (dF). Stored time series image stacks were analysed off-line using Imaging Workbench 6, Clampfit 10.5 (Molecular Devices) and SigmaPlot 11 (Systat Software Inc., San Jose, CA, USA). […]

[1] = intracellular pH = 5.5, extracellular pH 7.4, -50 mV
[2] = intracellular pH = 8.0, extracellular pH 7.4, -50 mV

## CCc1ccc(NC(=O)CSc2nnc(-c3cccnc3)n2CC)cc1 [VUAA1, acetamide,N-(4-ethylphenyl)-2-[[4-ethyl-5-(3-pyridinyl)-4H-1,2,4-triazol-3-yl]thio]-]
CpomOrco^Q417H; [1]
  EC50: ~550 µM
  Imax (whole-cell current amplitude, Hill fit): ~216 pA and ~ 216 ± 23 pA
CpomOrco^Q417H; [2]
  EC50: ~615 µM
  Imax (whole-cell current amplitude, Hill fit): ~ 332 pA and ~ 332 ± 44 pA
CpomOrco^Q417H; intracellular pH = 5.5
  h (Hill equation): ~ 4 ± 1.4
CpomOrco^Q417H; intracellular pH = 5.5, GFP positive cells tested
  number of cells sensitive to VUAA1: 6 out of 9
CpomOrco^Q417H; intracellular pH = 8.0
  h (Hill equation): ~ 5 ± 1.9
CpomOrco^Q417H; intracellular pH = 8.0, GFP positive cells tested
  number of cells sensitive to VUAA1: 11 out of 17
CpomOrco+OR6a; 800 µM VUAA1, Experiment 3, CpomOrco+OR6a
  Fluo4 + cells, %: 48,34%
CpomOrco+OR6a; 800 µM VUAA1, Experiment 4, CpomOrco+OR6a
  Fluo4 + cells, %: 49,71%
CpomOrco+OR6a; 800 µM VUAA1, HEK293A co-transfected with CpomOrco, CpomOR6a and EBFP, range of two experiments
  percentage of VUAA-responsive cells: 48.34–49.71%
